The values that follow come from US9193736B2, “PDE 10a inhibitors for the treatment of type II diabetes” (Janssen Pharmaceutica, NV, priority 2013, dated 2015).

For assay [1], the target named is Rat recombinant PDE10a (rPDE10a) (Rattus norvegicus (Rat), UniProt Q9QYJ6). Description: In vitro assay PDE10a: rat recombinant PDE10a SPA with 3H-cAMP substrate, IC50. Type of assay: biochemical. To be noted: 60 nM cAMP, read-out: rPDE10a2 IC50. As for the experimental part: In Vitro Assay PDE10a Rat recombinant PDE10a (rPDE10a) was expressed in Sf9 cells using a recombinant rPDE10a baculovirus construct. Cells were harvested after 48 h of infection and the rPDE10a protein was purified by metal chelate chromatography on Ni-sepharose 6FF. Tested compounds were dissolved and diluted in 100% DMSO to a concentration 100 fold of the final concentration in the assay. […] The reaction was incubated for 60 min at rt. After incubation, the reaction was stopped with 20 μL of 17.8 mg/mL PDE SPA beads. […] For blank values the enzyme was omitted from the reaction and replaced by incubation buffer.

Assay [2] addresses Human recombinant PDE10A2 (Homo sapiens (Human), UniProt Q9Y233). The experiment in a line: In vitro hPDE10a: human recombinant PDE10A2 scintillation proximity assay, IC50. Type of assay: biochemical. The note with it: human recombinant PDE10A2, SPA, 60 nM cAMP; read-out: hPDE10a2 IC50. A digest of the protocol:
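Purified recombinant human PDE10A2 (Ni-sepharose) was assayed by SPA, counting [3H]-AMP product captured on yttrium silicate beads added in zinc sulphate stop solution. Inhibition was expressed as % of activity without compound, with a no-enzyme low control. Repeat data points were aggregated.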
(In general: In a scintillation proximity assay essentially only radioactivity close to the scintillant gives light.)

The term IC50 denotes the midpoint of a concentration-inhibition curve.

Where a name gives a salt, the structure may show the parent alone.

Sequence of Human recombinant PDE10A2 (Q9Y233 267-1055): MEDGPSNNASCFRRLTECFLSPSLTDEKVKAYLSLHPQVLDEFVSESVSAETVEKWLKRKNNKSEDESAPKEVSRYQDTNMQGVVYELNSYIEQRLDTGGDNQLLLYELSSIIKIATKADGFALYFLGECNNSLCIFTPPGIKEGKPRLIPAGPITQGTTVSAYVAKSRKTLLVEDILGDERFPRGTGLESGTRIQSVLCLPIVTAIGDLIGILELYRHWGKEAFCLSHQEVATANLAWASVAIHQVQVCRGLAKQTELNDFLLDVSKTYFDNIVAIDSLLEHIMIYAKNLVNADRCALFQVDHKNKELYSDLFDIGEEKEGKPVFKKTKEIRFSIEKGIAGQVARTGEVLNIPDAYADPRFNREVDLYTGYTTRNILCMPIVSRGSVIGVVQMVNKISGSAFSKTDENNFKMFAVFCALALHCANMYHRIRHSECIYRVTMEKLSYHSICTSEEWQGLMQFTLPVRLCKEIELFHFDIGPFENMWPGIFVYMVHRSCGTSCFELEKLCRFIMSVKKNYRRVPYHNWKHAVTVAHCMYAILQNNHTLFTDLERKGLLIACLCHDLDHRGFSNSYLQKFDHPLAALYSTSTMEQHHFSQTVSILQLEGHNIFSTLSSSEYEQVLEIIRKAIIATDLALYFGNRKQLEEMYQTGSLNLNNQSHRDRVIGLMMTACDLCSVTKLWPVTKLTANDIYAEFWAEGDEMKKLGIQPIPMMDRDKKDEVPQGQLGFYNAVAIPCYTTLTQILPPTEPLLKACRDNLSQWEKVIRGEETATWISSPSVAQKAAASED
Sequence of Rat recombinant PDE10a (rPDE10a) (Q9QYJ6 whole entry): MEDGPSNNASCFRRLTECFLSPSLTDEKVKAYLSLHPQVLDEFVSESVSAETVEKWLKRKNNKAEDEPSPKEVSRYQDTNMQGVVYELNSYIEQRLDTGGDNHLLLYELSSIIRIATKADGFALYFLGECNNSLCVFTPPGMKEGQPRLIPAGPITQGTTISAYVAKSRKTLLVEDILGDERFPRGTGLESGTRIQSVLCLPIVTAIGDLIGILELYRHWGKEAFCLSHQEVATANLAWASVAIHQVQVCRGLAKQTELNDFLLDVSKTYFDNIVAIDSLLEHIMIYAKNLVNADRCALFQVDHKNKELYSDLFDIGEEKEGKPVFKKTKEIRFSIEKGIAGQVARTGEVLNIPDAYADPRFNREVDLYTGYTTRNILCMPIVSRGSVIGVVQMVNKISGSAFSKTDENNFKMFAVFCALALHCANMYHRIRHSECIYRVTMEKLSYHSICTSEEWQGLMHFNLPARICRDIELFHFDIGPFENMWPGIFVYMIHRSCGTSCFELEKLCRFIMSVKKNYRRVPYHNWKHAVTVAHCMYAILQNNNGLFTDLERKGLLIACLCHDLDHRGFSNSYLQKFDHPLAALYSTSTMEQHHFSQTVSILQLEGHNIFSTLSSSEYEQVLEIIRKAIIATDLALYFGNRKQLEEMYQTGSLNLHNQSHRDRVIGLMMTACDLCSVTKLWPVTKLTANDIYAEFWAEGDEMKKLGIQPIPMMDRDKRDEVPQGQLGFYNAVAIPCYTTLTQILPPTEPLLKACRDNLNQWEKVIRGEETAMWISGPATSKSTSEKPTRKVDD

For the molecule `O=C(O)c1ccc(-c2c(/C=C/c3ccc4ccccc4n3)nc3c(N4CCOCC4)ccnn23)cn1` [compound 92, (E)-5-(8-Morpholino-2-(2-(quinolin-2-yl)vinyl)imidazo[1,2-b]pyridazin-3-yl)picolinic acid], the IC50 in assay [1] turned out to be 5 nM; in assay [2], 4 nM.
On the same counts, the results for `O=C(O)c1ccc(-c2c(C3CN(c4ccc5ccccc5n4)C3)nc3c(N4CCOCC4)ccnn23)cc1` [Cpd 157, 4-(8-Morpholino-2-(1-(quinolin-2-yl)azetidin-3-yl)imidazo[1,2-b]pyridazin-3-yl)benzoic acid] are 2 nM and 2 nM.
On the same counts, the results for `O=C(O)c1cccc2nc(/C=C/c3nc4c(N5CCOCC5)ccnn4c3-c3cccnc3)ccc12` [Cpd 137, (E)-2-(2-(8-Morpholino-3-(pyridin-3-yl)imidazo[1,2-b]pyridazin-2-yl)vinyl)quinoline-5-carboxylic acid sodium salt] are 1 nM and 3 nM.
On the same counts, the results for `NS(=O)(=O)c1ccc(-c2c(CCc3ccc4ccccc4n3)nc3c(N4CCOCC4)ccnn23)cc1` [compound 38, 4-(8-Morpholino-2-(2-(quinolin-2-yl)ethyl)imidazo[1,2-b]pyridazin-3-yl)benzenesulfonamide] are 4 nM and 7 nM.
As for `COc1cc2ccccc2nc1/C=C/c1nc2c(N3CCOCC3)ccnn2c1-c1ccc(C(=O)O)cc1` [Cpd 119, (E)-4-(2-(2-(3-Methoxyquinolin-2-yl)vinyl)-8-morpholinoimidazo[1,2-b]pyridazin-3-yl)benzoic acid], the IC50 in assay [1] and in assay [2] was 6 nM each time.
With `O=C(O)CCNC(=O)c1ccc(-c2c(C#Cc3ccc4ccccc4n3)nc3c(N4CCOCC4)ccnn23)cc1` [compound 82, 3-(4-(8-Morpholino-2-(quinolin-2-ylethynyl)imidazo[1,2-b]pyridazin-3-yl)benzamido)propanoic acid], the IC50 is 2 nM in assay [1] and less than 1 nM in assay [2].
The matching figures for `C(=C\c1nc2c(N3CCOCC3)ccnn2c1-c1ccc(N2CCNCC2)nc1)/c1ccc2ccccc2n1` [Cpd 177, (E)-4-(3-(6-(piperazin-1-yl)pyridin-3-yl)-2-(2-(quinolin-2-yl)vinyl)imidazo[1,2-b]pyridazin-8-yl)morpholine trifluoroacetic acid salt]: 10 nM and 21 nM.
The matching figures for `O=C(O)c1ccc(-c2c(C#Cc3ccc4ccccc4n3)nc3c(N4CCOCC4)ccnn23)s1` [Cpd 85, 5-(8-Morpholino-2-(quinolin-2-ylethynyl)imidazo[1,2-b]pyridazin-3-yl)thiophene-2-carboxylic acid]: less than 1 nM and less than 1 nM.
Turning to `C(=C\c1nc2c(N3CCOCC3)ccnn2c1-c1ccc(-c2nnn[nH]2)cc1)/c1ccc2ccccc2n1` [compound 176, (E)-4-(3-(4-(1H-Tetrazol-5-yl)phenyl)-2-(2-(quinolin-2-yl)vinyl)imidazo[1,2-b]pyridazin-8-yl)morpholine], the IC50 in assay [1] and in assay [2] was 6 nM each time.
As to `CC(C)[C@H](NC(=O)c1ccc(-c2c(C#Cc3ccc4ccccc4n3)nc3c(N4CCOCC4)ccnn23)cc1)C(=O)O` [Cpd 101, (S)-3-Methyl-2-(4-(8-morpholino-2-(quinolin-2-ylethynyl)imidazo[1,2-b]pyridazin-3-yl)benzamido)butanoic acid trifluoroacetic acid salt], the figures for the IC50 in assay [1] and in assay [2] were 5 nM and 4 nM, respectively.
The matching figures for `OC(c1ccc(-c2c(CCc3ccc4ccccc4n3)nc3c(N4CCOCC4)ccnn23)cc1)(C(F)(F)F)C(F)(F)F` [compound 53, 1,1,1,3,3,3-Hexafluoro-2-(4-(8-morpholino-2-(2-(quinolin-2-yl)ethyl)imidazo[1,2-b]pyridazin-3-yl)phenyl)propan-2-ol]: 33 nM and 41 nM.
The matching figures for `O=C(O)c1ccc(-c2c(/C=C/c3ccc4ccccc4n3)nc3c(N4CCOCC4)ccnn23)cc1O` [compound 63, (E)-2-Hydroxy-4-(8-morpholino-2-(2-(quinolin-2-yl)vinyl)imidazo[1,2-b]pyridazin-3-yl)benzoic acid]: 3 nM and 3 nM.
On the same counts, the results for `C(=C\c1nc2c(N3CCOCC3)ccnn2c1-c1ccc(-c2nnn[nH]2)nc1)/c1ccc2ccccc2n1` [Cpd 19, 2-[(E)-2-{8-Morpholin-4-yl-3-[6-(1H-tetrazol-5-yl)pyridin-3-yl]imidazo[1,2-b]pyridazin-2-yl}ethenyl]quinoline] are 3 nM and 2 nM.
Regarding `O=C(O)c1cc2ccccc2nc1/C=C/c1cn2nc(Cl)cc(N3CCOCC3)c2n1` [Cpd 143, 2-[(E)-2-(6-Chloro-8-morpholin-4-ylimidazo[1,2-b]pyridazin-2-yl)ethenyl]quinoline-3-carboxylic acid], the IC50 in assay [1] was less than 1 nM; in assay [2] it was 1 nM.
The matching figures for `c1ccc2ncc(OCCc3nc4c(N5CCOCC5)ccnn4c3-c3ccc(N4CCNCC4)nc3)cc2c1` [Cpd 14, 4-(3-(6-(Piperazin-1-yl)pyridin-3-yl)-2-(2-(quinolin-3-yloxy)ethyl)imidazo[1,2-b]pyridazin-8-yl)morpholine trifluoroacetic acid salt]: 776 nM and 955 nM.
For `CN1CCN(c2ccc(-c3c(CN(C)c4ccc5ccccc5n4)nc4c(N5CCOCC5)ccnn34)cn2)CC1` [Cpd 15, N-Methyl-N-((3-(6-(4-methylpiperazin-1-yl)pyridin-3-yl)-8-morpholinoimidazo[1,2-b]pyridazin-2-yl)methyl)quinolin-2-amine trifluoroacetic acid salt], the figures for the IC50 in assay [1] and in assay [2] were 269 nM and 676 nM, respectively.
On the same counts, the results for `CC(C)[C@H](NC(=O)c1ccc(-c2c(CCc3ccc4ccccc4n3)nc3c(N4CCOCC4)ccnn23)cc1)C(=O)O` [Cpd 75, N-({4-[8-Morpholin-4-yl-2-(2-quinolin-2-ylethyl)imidazo[1,2-b]pyridazin-3-yl]phenyl}carbonyl)-L-valine] are 7 nM and 4 nM.
The matching figures for `CS(=O)(=O)NC(=O)c1ccc(-c2c(CSc3ccc4ccccc4n3)nc3c(N4CCOCC4)ccnn23)cc1` [Cpd 120, N-(Methylsulfonyl)-4-(8-morpholino-2-((quinolin-2-ylthio)methyl)imidazo[1,2-b]pyridazin-3-yl)benzamide]: 2 nM and 3 nM.
In the case of `CN(C)c1ccc(-c2c(COc3ccc4ccccc4n3)nc3c(N4CCOCC4)ccnn23)cn1` [Cpd 5, N,N-dimethyl-5-(8-morpholino-2-((quinolin-2-yloxy)methyl)imidazo[1,2-b]pyridazin-3-yl)pyridin-2-amine methane sulfonic acid], the IC50 in assay [1] came to 457 nM; in assay [2], 126 nM.
Take `O=C(O)C1CCC(Nc2c(/C=C/c3ccc4ccccc4n3)nc3c(N4CCOCC4)ccnn23)CC1` (stereo not shown) [Cpd 152, (E)-4-((8-Morpholino-2-(2-(quinolin-2-yl)vinyl)imidazo[1,2-b]pyridazin-3-yl)amino)cyclohexanecarboxylic acid]: the IC50 stood at 15 nM in assay [1] and 7 nM in assay [2].
Regarding `O=C(O)c1ccc(-c2c(/C=C/c3nc4ccccc4s3)nc3c(N4CCOCC4)ccnn23)cc1` [Cpd 90, (E)-4-(2-(2-(Benzo[d]thiazol-2-yl)vinyl)-8-morpholinoimidazo[1,2-b]pyridazin-3-yl)benzoic acid], the values for the IC50 in assay [1] and in assay [2] were 17 nM and 19 nM, respectively.
The matching figures for `O=C(O)c1cc2ccccc2nc1/C=C/c1cn2nccc(N3CCOCC3)c2n1` [Cpd 144, 2-[(E)-2-(8-Morpholin-4-ylimidazo[1,2-b]pyridazin-2-yl)ethenyl]quinoline-3-carboxylic acid]: less than 1 nM and less than 1 nM.
The matching figures for `O=C(NO)c1cccc2nc(/C=C/c3cn4nccc(N5CCOCC5)c4n3)ccc12` [Cpd 118, N-Hydroxy-2-[(E)-2-(8-morpholin-4-ylimidazo[1,2-b]pyridazin-2-yl)ethenyl]quinoline-5-carboxamide]: 1 nM and less than 1 nM.
The matching figures for `O=c1ncn(-c2ccc(-c3c(/C=C/c4ccc5ccccc5n4)nc4c(N5CCOCC5)ccnn34)cn2)[nH]1` [Cpd 56, (E)-1-(5-(8-Morpholino-2-(2-(quinolin-2-yl)vinyl)imidazo[1,2-b]pyridazin-3-yl)pyridin-2-yl)-1,2-dihydro-1,2,4-triazol-3-one trifluoroacetic acid salt]: 7 nM and 4 nM.
`O=C(O)[C@@H]1CCCN1C(=O)c1ccc(-c2c(CCc3ccc4ccccc4n3)nc3c(N4CCOCC4)ccnn23)cc1` [Cpd 72, (S)-1-(4-(8-Morpholino-2-(2-(quinolin-2-yl)ethyl)imidazo[1,2-b]pyridazin-3-yl)benzoyl)pyrrolidine-2-carboxylic acid trifluoroacetic acid salt]: the IC50 in assay [1] came out at 8 nM; in assay [2], 6 nM.
As to `O=C(O)[C@@H]1CCCN1C(=O)c1ccc(-c2c(/C=C/c3ccc4ccccc4n3)nc3c(N4CCOCC4)ccnn23)cc1` [Cpd 71, (S,E)-1-(4-(8-Morpholino-2-(2-(quinolin-2-yl)vinyl)imidazo[1,2-b]pyridazin-3-yl)benzoyl)pyrrolidine-2-carboxylic acid trifluoroacetic acid salt], the IC50 was 8 nM in assay [1] and 6 nM in assay [2].
